What all share (assay type): in vivo
Assay [1] relates to blackgrass (ALOMY, Alopecurus myosuroides). Description: Test H post-emergence, alone and in combination: blackgrass. The source says: (§1) Seeds of plant species selected from wheat (TRZAW, Triticum aestivum), barley (HORBW, Hordeum vulgare), Kochia (KCHSC, Kochia caoparia) blackgrass (ALOMY, Alopecurus myosuroides), canarygrass (PHAMI, Phalaris minor), Italian ryegrass (LOLMU, Lolium multiflorum) common lambsquarter (CHEAL, Chenopodium album), pigweed (AMARE, Amaranthus retroflexus), Common Chickweed (STEME, Stellaria media), Russian thistle (SASKR, Salsola iberica), Wild Buckwheat (POLCO, Polygonum convolvulus), Catchweed Bedstraw (GALAP, Galium aparine), Mustard (SINAR, Sinapisar arvensis), Henbit Deadnettle (LAMAM, Lamium amplexicaule), Wild Radish (RAPRA, Raphanus raphanistrum), Field Poppy (PAPRH, Papaver rhoeas), Field Violet (VIOAR, Viola arvennsis), Scentless Chamomile (MATIN Matricaria inodora) were planted into soil and treated post-emergence with test chemicals formulated in a non-phytotoxic solvent mixture. Plants were grown in a greenhouse using supplemental lighting to maintain a photoperiod of approximately 14 hours; daytime and nighttime temperatures were approximately 23°-29° and 16°-19° Celsius, respectively. Balanced fertilizer was applied through the watering system. Treated plants and controls were maintained in a greenhouse for 20 days, after which time all species were compared to controls and visually evaluated. Plant response ratings were calculated as the mean of three replicates (unless otherwise indicated), are summarized in Table G, and are based on a scale of 0 to 100 where 0 is no effect and 100 is complete control. A dash (-) response means no test result.

Assay [2] deals with Italian ryegrass (LOLMU, Lolium multiflorum). The assay can be described thus: Test H post-emergence, alone and in combination: Italian ryegrass.
Excerpt: as §1

Assay [3] has as its system common lambsquarter (CHEAL, Chenopodium album). The assay can be described thus: Test H post-emergence, alone and in combination: common lambsquarter.
Excerpt: as §1

Assay [4] relates to pigweed (AMARE, Amaranthus retroflexus). The assay can be described thus: Test H post-emergence, alone and in combination: pigweed.
Excerpt: as §1

Assay [5] has as its system Russian thistle (SASKR, Salsola iberica). Description: Test H post-emergence, alone and in combination: Russian thistle.
Excerpt: as §1

Assay [6] deals with Catchweed Bedstraw (GALAP, Galium aparine). The assay can be described thus: Test H post-emergence, alone and in combination: Catchweed Bedstraw.
Excerpt: as §1

The test system of assay [7] is Mustard (SINAR, Sinapisar arvensis). Description: Test H post-emergence, alone and in combination: Mustard.
Excerpt: as §1

Assay [8] concerns Henbit Deadnettle (LAMAM, Lamium amplexicaule). Description: Test H post-emergence, alone and in combination: Henbit Deadnettle.
Excerpt: as §1

Assay [9] deals with Wild Radish (RAPRA, Raphanus raphanistrum). Description: Test H post-emergence, alone and in combination: Wild Radish.
Excerpt: as §1

For assay [10], the system named is Field Poppy (PAPRH, Papaver rhoeas). Description: Test H post-emergence, alone and in combination: Field Poppy.
Excerpt: as §1

Assay [11] deals with Field Violet (VIOAR, Viola arvennsis). Description: Test H post-emergence, alone and in combination: Field Violet.
Excerpt: as §1

The test system of assay [12] is Scentless Chamomile (MATIN Matricaria inodora). Description: Test H post-emergence, alone and in combination: Scentless Chamomile.
Excerpt: as §1

In assay [13] the test system is smartweed (ladysthumb smartweed, Polygonum persicaria). The assay can be described thus: Test E pre-/postemergence: smartweed. The note with it: Postemergence, scale 0 to 100. From the text: (§2) Seeds of plant species selected from corn (Zea mays), soybean (Glycine max), velvetleaf (Abutilon theophrasti), lambsquarters (Chenopodium album), poinsettia, wild (wild poinsettia, Euphorbia heterophylla), pigweed, palmer (palmer pigweed, Amaranthus palmeri), waterhemp (common waterhemp, Amaranthus rudis), smartweed (ladysthumb smartweed, Polygonum persicaria), surinam grass (Brachiaria decumbens), crabgrass, large (large crabgrass, Digitaria sanguinalis), crabgrass, Brazil (Brazilian crabgrass, Digitaria horizontalis), panicum, fall (fall panicum, Panicum dichotomiflorum), foxtail, giant (giant foxtail, Setaria faberii), foxtail, green (green foxtail, Setaria viridis), goosegrass (Eleusine indica), johnsongrass (Sorghum halepense), ragweed (common ragweed, Ambrosia elation), barnyardgrass (Echinochloa crus-galli), sandbur (southern sandbur, Cenchrus echinatus), arrowleaf sida (Sida rhombifolia), ryegrass, Italian (Italian ryegrass, Lolium multiflorum), dayflower, (VA) (Virginia dayflower, Commelina virginica), field bindweed (Convolvulus arvensis), cocklebur (common cocklebur, Xanthium strumarium), morningglory (Ipomoea coccinea), nightshade (eastern black nightshade, Solanum ptycanthum), kochia (Kochia scoparia), nutsedge, yellow (yellow nutsedge, Cyperus esculentus) and beggarticks (hairy beggarticks, Bidens pilosa) were planted into a silt loam soil and treated preemergence with test chemicals formulated in a non-phytotoxic solvent mixture which included a surfactant. At the same time, plants selected from these crop and weed species were planted in pots containing a growing medium comprising spaghnum peat moss, vermiculite, wetting agent and starter nutrients and treated with postemergence applications of some of the test chemicals formulated in the same manner. Plants ranged in height from 2 to 18 cm for postemergence treatments (1- to 4-leaf stage).
(§3) Treated plants and controls were maintained in a greenhouse for 14 to 21 days, after which time all species were compared to controls and visually evaluated. Plant response ratings, summarized in Table E, are based on a scale of 0 to 100 where 0 is no effect and 100 is complete control. A dash (-) response means no test result.

The subject of assay [14] is beggarticks (hairy beggarticks, Bidens pilosa). Description: Test E pre-/postemergence: beggarticks. The note with it: Postemergence, scale 0 to 100.
Excerpt: as §2, §3

Turning to `Cc1nn(-c2ccc(F)cc2)nc1Oc1ccnc(C(F)(F)F)c1` [Compound 129, 4-[[2-(4-fluorophenyl)-5-methyl-2H-1,2,3-triazol-4-yl]oxy]-2-(trifluoromethyl)pyridine], the ALOMY plant response came to 5 in assay [1] (Rate 31), 10 in [1] (Rate 62) and 30 in assay [1] (Rate 125). For the same molecule, the LOLMU plant response is 10 in assay [2] (Rate 31), 10 in assay [2] (Rate 62) and 15 in assay [2] (Rate 125). Moreover, the CHEAL plant response in assay [3] (Rate 31) came to 85; in assay [3] (Rate 62), 80; in [3] (Rate 125) it was 90. Moreover, the figures for the AMARI plant response in assay [4] (Rate 31), in assay [4] (Rate 62) and in assay [4] (Rate 125) were 80, 90 and 95, respectively. For the same molecule, the SASKR plant response is listed as 65 in assay [5] (Rate 31), 80 in assay [5] (Rate 62) and 90 in assay [5] (Rate 125). Besides, the GALAP plant response in assay [6] (Rate 31) was 65; in assay [6] (Rate 62) it was 60; in [6] (Rate 125), 70. Moreover, the SINAR plant response in assay [7] (Rate 31) is recorded as 80; in assay [7] (Rate 62) it was 95; in assay [7] (Rate 125), 95. Also, the LAMAM plant response is 60 in [8] (Rate 31), 70 in [8] (Rate 62) and 80 in assay [8] (Rate 125). Also, the values for the RAPRA plant response in assay [9] (Rate 31), in assay [9] (Rate 62) and in assay [9] (Rate 125) were 60, 85 and 90, respectively. Also, the PAPRH plant response in assay [10] (Rate 31) is given as 85; in assay [10] (Rate 62) it was 90; in assay [10] (Rate 125), 90. In addition, the VIOAR plant response was 60 in assay [11] (Rate 31), 75 in assay [11] (Rate 62) and 90 in [11] (Rate 125). For the same molecule, the MATIN plant response in assay [12] (Rate 31) amounted to 0; in assay [12] (Rate 62), 5; in assay [12] (Rate 125), 10.

Regarding `Cc1nn(-c2ccc(C(F)(F)F)cc2)nc1Cc1ccnc(C(F)(F)F)c1` [Compound 47, 4-[[5-methyl-2-[4-(trifluoromethyl)phenyl]-2H-1,2,3-triazol-4-yl]methyl]-2-(trifluoromethyl)pyridine], the “Plant response rating: Smartweed” value in assay [13] (250 g ai/ha) was found to be 85; in assay [13] (16 g ai/ha) it was 30; in [13] (31 g ai/ha), 40; in [13] (62 g ai/ha), 50; in assay [13] (125 g ai/ha), 80. For the same molecule, the “Plant response rating: Beggarticks” value in assay [14] (250 g ai/ha) is listed as 50; in assay [14] (16 g ai/ha), 30; in assay [14] (31 g ai/ha) it was 30; in assay [14] (62 g ai/ha), 40; in [14] (125 g ai/ha), 50.

The values above are taken from US9302999B2, “Substituted triazoles as herbicides” (E. I. DU PONT DE NEMOURS AND COMPANY, priority 2012, dated 2016).
